Laboratory results reported in patent US8519110B2, “mRNA cap analogs” (Board of Supervisors of Louisiana State University And …, priority 2008, dated 2013).

Experiments:
[1] = test system: rabbit reticulocyte lysate system; assay: In vitro translation efficiency of capped luciferase mRNA with 31-base poly(A) tail, method II transcripts; format: biochemical; conditions: for Translation efficiency in comparison to m^7GpppG-LUC-(A)31 mRNA, Experiment No. 4: experiment 4; for Translation efficiency in comparison to m^7GpppG-LUC-(A)31 mRNA, Experiment No. 5: experiment 5; for Translation efficiency in comparison to m^7GpppG-LUC-(A)31 mRNA, Mean: mean of experiments
Description: Capped, polyadenylated luciferase mRNAs were synthesized in vitro by PCR from a dsDNA template that contained the SP6 promoter, the 5′-UTR sequence of rabbit β-globin mRNA, the entire firefly luciferase coding region, and 31 adenosine residues. A typical transcription reaction mixture (40 μl) contained SP6 transcription buffer (Fermentas), 0.7 ug of DNA template, 1 U/μl RiboLock Ribonuclease Inhibitor (Fermentas), 0.5 mM each of ATP, CTP, and UTP, 0.1 mM GTP, and 0.5 mM dinucleotide cap analog. The reaction mixture was incubated at 37° C. for 5 min before addition of SP6 RNA polymerase (Fermentas) to a final concentration of 1 U/μl, and incubation then continued for 45 min at 37° C. The reaction mixture was treated with DNase as in Method I. RNA transcripts were purified with NucAway Spin Columns (Ambion). The integrity of transcripts and quantitation was performed as in Method I.
A micrococcal nuclease-treated rabbit reticulocyte lysate system (Flexi Rabbit Reticulocyte Lysate System, Promega) was used for in vitro translation. Translation reactions were performed in 10 μl for 60 min at 30° C. A typical reaction mixture contained 40% reticulocyte lysate, the 20 “standard” amino acids (0.01 mM each), MgCl2 (1.2 mM), potassium acetate (170 mM), and mRNA (five different concentrations of each transcript, ranging from 0.25 to 4 μg/ml). Luciferase activity was measured in a luminometer (Glomax, Promega). Linear regression was used to fit the data points (luciferase activity versus concentration of mRNA transcript), and translational efficiency was defined as the slope of this line. The relative translational efficiencies of the test mRNAs were compared to that of m^7GpppG-capped luciferase mRNA, the latter being defined as 1.0.

Human DcpS = target: T1, Human DcpS (Homo sapiens, UniProt Q96C86); assay: Assay of susceptibility to DcpS (RP HPLC); format: biochemical; conditions: 40 μM cap analog, 30° C., up to 120 min
T1 construct: made in house; host or cells: Escherichia coli
T1 sequence (Q96C86 1-337): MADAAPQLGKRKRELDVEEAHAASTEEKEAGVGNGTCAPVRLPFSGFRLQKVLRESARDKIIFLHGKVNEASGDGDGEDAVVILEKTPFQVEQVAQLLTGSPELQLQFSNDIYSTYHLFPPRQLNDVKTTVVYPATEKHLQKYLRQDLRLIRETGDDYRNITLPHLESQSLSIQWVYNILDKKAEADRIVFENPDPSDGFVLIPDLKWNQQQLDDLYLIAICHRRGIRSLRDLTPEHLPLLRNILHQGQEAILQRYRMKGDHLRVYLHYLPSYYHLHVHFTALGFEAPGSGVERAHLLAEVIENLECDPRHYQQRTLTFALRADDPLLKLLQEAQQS
Description: Human DcpS was expressed in Escherichia coli as described in L. Cohen et al., “Nematode m^7GpppG and m3^2,2,7GpppG decapping: activities in Ascaris embryos and characterization of C. elegans scavenger DcpS,” RNA, vol. 10, pp. 1609-1624 (2004). A 15 μM solution of the protein in 20 mM Tris buffer, pH 7.5, containing 50 mM KCl, 0.2 mM EDTA, 1 mM DTT, 0.5 mM PMSF, and 20% glycerol was stored at −80° C. until used. Enzymatic reactions were carried out at 30° C. in 500 μl of 50 mM Tris-HCl, pH 7.9, containing 20 mM MgCl2 and 60 mM (NH4)2SO4. A 40 μM solution of the selected cap analog was treated with 5.0 μl of DcpS for 120 min. At times of 10, 30, 60, and 120 min, a 100-μl sample was collected from the reaction mixture and deactivated by incubation at 90° C. for 2 min. Samples were analyzed without further treatment by analytical RP HPLC with a linear gradient of methanol in 0.1 M KH2PO4, pH 6.0, from 0-50% over 15 min.

eIF4E = eIF4E (Mus musculus, UniProt P63073); assay: Binding affinity of cap analogs to eIF4E by fluorescence titration; conditions: equilibrium association constant; 20 °C, pH 7.2, ionic strength 150 mM
Sequence of eIF4E (P63073 28-217 limits assumed): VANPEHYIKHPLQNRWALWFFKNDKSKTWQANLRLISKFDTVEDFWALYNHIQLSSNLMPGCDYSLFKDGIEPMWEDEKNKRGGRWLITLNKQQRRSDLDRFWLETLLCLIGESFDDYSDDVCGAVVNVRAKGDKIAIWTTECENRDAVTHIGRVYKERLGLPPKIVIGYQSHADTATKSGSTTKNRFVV
Description: Fluorescence titration measurements were carried out on an LS-50B or LS-55 spectrofluorometer (Perkin Elmer Co.) at 20.0±0.2° C. in 50 mM HEPES/KOH (pH 7.2), 0.5 mM EDTA, and 1 mM DTT, with ionic strength adjusted to 150 mM by addition of KCl. Various cap analogue solutions, of increasing concentration, were added in 1 μl aliquots to 1.4 ml of 0.1 or 0.2 μM protein solutions. Fluorescence intensities were measured with excitation at 280 nm or 295 nm with 2.2 nm bandwidth, and detection at 337 nm with 4 nm bandwidth and a 290-nm cut-off filter. The data were corrected for sample dilution and inner filter effects. Equilibrium association constants (Kas) were determined by fitting the theoretical dependence of fluorescence intensity on cap analog concentration to the experimental data, as otherwise described in A. Niedźwiecka et al., “Biophysical studies of eIF4E cap-binding protein: recognition of mRNA 5′ cap structure and synthetic fragments of eIF4G and 4E-BP1 proteins,” J. Mol. Biol., vol. 312, pp. 615-635 (2002). The concentration of protein was allowed to be a free parameter in the equilibrium equation, to determine the amount of “active” protein. The final Kas was calculated as a weighted average of three to ten independent titrations, with the weights taken as the reciprocals of the squares of the numerical standard deviations. Numerical nonlinear least-square regression analysis was performed using ORGIN 6.0 (Microcal Software Inc., USA).
The binding affinities of eukaryotic eIF4E for various cap analogs were determined by fluorescence quenching. This biophysical test allows one to predict the potential efficacy of cap analogs in translation. Those having higher affinities for eIF4E than the unmodified cap analog (m^7GpppG) are expected to be better recognized by the translational machinery, leading to higher translational efficiencies. They also are expected to compete more effectively with unmodified mRNA when free cap dinucleotides are used to inhibit translation. See generally E. Grudzien-Nogalska et al., “Synthesis of anti-reverse cap analogs (ARCAs) and their applications in mRNA translation and stability,” Methods Enzymol., vol. 431, pp. 203-227 (2007).

Row | Translation efficiency in comparison to m^7GpppG-LUC-(A)31 mRNA, Experiment No. 4 [1] | Translation efficiency in comparison to m^7GpppG-LUC-(A)31 mRNA, Experiment No. 5 [1] | Translation efficiency in comparison to m^7GpppG-LUC-(A)31 mRNA, Mean [1] | Susceptibility to DcpS (Human DcpS) | Cap analog/eIF4E affinity (KAS) (eIF4E) [μM^−1] | Compound
1 | 2.38 | 3.28 | 2.83 | hydrolyzed | 15.3 ± 0.2 | [BH3-]P(=O)(OC[C@H]1O[C@@H](n2cnc3c(=O)[nH]c(N)nc32)[C@H](O)[C@@H]1O)OP(=O)(O)OP(=O)(O)OC[C@H]1O[C@@H](n2c[n+](C)c3c(=O)[nH]c(N)nc32)[C@H](OC)[C@@H]1O (single isomer, unassigned) [m2^7,2′-OGpppBH3G (D1), m2^7,2′-OGpppBH3G]
2 | 1.76 | 1.92 | 1.84 | hydrolyzed | 14.4 ± 0.2 | [BH3-]P(=O)(OC[C@H]1O[C@@H](n2cnc3c(=O)[nH]c(N)nc32)[C@H](O)[C@@H]1O)OP(=O)(O)OP(=O)(O)OC[C@H]1O[C@@H](n2c[n+](C)c3c(=O)[nH]c(N)nc32)[C@H](OC)[C@@H]1O (single isomer, unassigned) [m2^7,2′-OGpppBH3G (D2), m2^7,2′-OGpppBH3G]
